Results as given in PubChem BioAssay AID179 (DTP/NCI, 2004).
pEC50, pIC50: −log10 of the molar value. Active and inactive are the calls of the source.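 The calls were made as follows: active = compounds giving half or more protection of infected cells from virus-caused growth loss, again on retest; inactive = the rest.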

System: CEM cells HIV-1 protection, formazan growth assay
Test: NCI AIDS Antiviral Assay
Conditions: for pIC50: measured here: growth of uninfected CEM cells
Method in brief: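 Five concentrations of each compound were applied to infected and uninfected human CEM cells. Protection from HIV-1 was judged from growth measured with a soluble formazan assay.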

**Q.** `COc1ccc(Br)c(CCC(CO)C2=CCC3(CC2)OCCO3)c1` (stereo not given) was tested. Which pEC50 did it give?
**A.** 4.80

**Q.** And the pIC50?
**A.** 4.06

**Q.** How did the pEC50 turn out when `CNC(=O)CNC(=O)C(Cc1ccc(NC(=O)CCCCC(C)=O)cc1)NC(=O)C(CCC(=O)OCc1ccccc1)NC(=O)OC(C)(C)C` (stereo not given) was run?
**A.** < 3.70

**Q.** And the pIC50?
**A.** < 3.70

**Q.** Which results are given for `CCOC(=O)c1nc2ccc(C(F)(F)F)cc2nc1Oc1cc(OC)c(OC)c(OC)c1`?
**A.** pEC50: < 4.00; pIC50: < 4.00

**Q.** With `CC(C)(C)c1ccc(OCCOc2ccc(C(C)(C)C)cc2NC=O)c(NC=O)c1` as the molecule, how does the pEC50 read?
**A.** < 3.70

**Q.** And the pIC50?
**A.** 5.29

**Q.** `O=c1nc2sc3ccc4ccccc4c3n2[nH]c1=O` was tested. Which pEC50 did it give?
**A.** < 4.32

**Q.** What about the pIC50 of the same molecule?
**A.** < 4.32

**Q.** Which results are given for `Cc1cn([C@H]2C[C@@H]3[C@@H](COC(CCc4ccccc4)N3O)O2)c(=O)[nH]c1=O` (stereo not given in full)?
**A.** pEC50: 4.02; pIC50: 3.82

**Q.** How did the pEC50 turn out when `O=C(O)c1ccccc1/C=C1\Cc2cc3c(cc2C1=O)CCC3` was run?
**A.** < 3.70

**Q.** What about the pIC50 of the same molecule?
**A.** < 3.70

**Q.** What does the source list for `Oc1ccc(Cl)cc1C(c1cc(Cl)ccc1O)C(Cl)(Cl)Cl`?
**A.** pEC50: 5.01; pIC50: 4.78

**Q.** `O=C1[C@@H]2[C@@H](CN3CN(c4ccccc4)N=C(c4ccccc4)[C@@]23c2ccccc2)C(=O)N1c1ccccc1` was tested. Which pEC50 did it give?
**A.** < 4.70

**Q.** What about the pIC50 of the same molecule?
**A.** 5.53

**Q.** Which results are given for `COC1C(O)CC(OC2CC(OC3CC(O[C@@H]4C(=O)c5c(cc6cc(OC7CC(OC8CC(O)C(O)C(C)O8)C(O)C(C)O7)c(C)c(O)c6c5O)C[C@H]4[C@H](OC)C(=O)[C@@H](O)[C@@H](C)O)OC(C)C3O)OC(C)C2O)OC1C` (stereo not given in full)?
**A.** pEC50: < 6.78; pIC50: 7.96

**Q.** With `CC1(Br)C(=O)NC(=O)N([C@H]2C[C@H](O)[C@@H](CO)O2)C1N=[N+]=[N-]` (stereo not given in full) as the molecule, how does the pEC50 read?
**A.** 3.84

**Q.** And the pIC50?
**A.** < 3.70

**Q.** What does the source list for `COC(=O)c1cc(C(=CC=O)c2cc(Cl)c(OC)c(C(=O)OC)c2)cc(Cl)c1OC`?
**A.** pEC50: < 3.70; pIC50: 5.05

**Q.** How did the pEC50 turn out when `CCOC(=O)CCNC(=O)c1cc(C)cc2c1Oc1c(cc(C)cc1C(=O)NCCC(=O)OCC)S2` was run?
**A.** < 3.70

**Q.** What about the pIC50 of the same molecule?
**A.** 4.53

**Q.** What does the source list for `O=C(CC(=O)N1N=C(c2ccccc2)C(N=Nc2ccc(Cl)cc2)C1=O)Nc1ccccc1Cl` (stereo not given)?
**A.** pEC50: < 4.42; pIC50: < 4.42

**Q.** With `O=C1/C(=C/c2ccc(Cl)cc2)CSC/C1=C\c1ccc(Cl)cc1` as the molecule, how does the pEC50 read?
**A.** < 3.70

**Q.** And the pIC50?
**A.** 5.58

**Q.** `Cc1nc(C)c(C(=O)NNC(=O)Cc2ccccc2)cc1C(=O)NNC(=O)Cc1ccccc1` was tested. Which pEC50 did it give?
**A.** < 3.70

**Q.** And the pIC50?
**A.** < 3.70

**Q.** How did the pEC50 turn out when `COc1cccc(/C=C2\N=C(c3ccccc3)OC2=O)c1OC` was run?
**A.** < 3.70

**Q.** And the pIC50?
**A.** 4.04

**Q.** Which results are given for `CSc1c(C(C)=O)c(O)n(-c2ccc(Cl)cc2)c(=O)c1C#N`?
**A.** pEC50: 4.45; pIC50: 4.44

**Q.** Which results are given for `NCCCCNCCCN1CC1`?
**A.** pEC50: < 3.70; pIC50: 6.83

**Q.** What does the source list for `CC(O)C1(CNc2cc(Cl)nc(N)n2)CCC1` (stereo not given)?
**A.** pEC50: < 3.70; pIC50: 3.74

**Q.** Which results are given for `O=C(Oc1ccccc1)c1cccc(C(=O)Oc2ccccc2)c1`?
**A.** pEC50: < 4.79; pIC50: < 4.79

**Q.** How did the pEC50 turn out when `Cc1cc2c3c(nc2c2cc[nH]c(C)c12)CCCC3` was run?
**A.** < 3.70

**Q.** What about the pIC50 of the same molecule?
**A.** 5.44

**Q.** `CC(C)=Nn1cnc2c1NC(C)(C)N=C2C(N)=O` was tested. Which pEC50 did it give?
**A.** < 3.70

**Q.** And the pIC50?
**A.** < 3.70

**Q.** What does the source list for `CC(=O)Nc1sc([N+](=O)[O-])cc1S(=O)(=O)c1ccc(Cl)cc1`?
**A.** pEC50: < 3.70; pIC50: 5.83

**Q.** Which results are given for `CC1=C/C(=N\N(C)C)C(C(O)(C(F)(F)F)C(F)(F)F)C(C)(C)C1` (stereo not given)?
**A.** pEC50: < 3.70; pIC50: 3.99

**Q.** `Cc1cc(C(=O)CCCCOc2ccc(C3=NCCO3)cc2)c(C)n1C` was tested. Which outcome did it give?
**A.** inactive

**Q.** With `Cc1ccc2nc3c(C)c(Cl)c(=O)cc-3sc2c1` as the molecule, how does the pEC50 read?
**A.** < 4.72

**Q.** What about the pIC50 of the same molecule?
**A.** 4.79

**Q.** `CCNc1cc2c3c(c1)CCN3CCC2` was tested. Which pEC50 did it give?
**A.** < 4.22

**Q.** What about the pIC50 of the same molecule?
**A.** 4.99

**Q.** How did the pEC50 turn out when `O=C(O)CC1NC(/C(=C/c2ccccc2)NC(=O)c2ccccc2)OC1=O` (stereo not given) was run?
**A.** < 3.70

**Q.** What about the pIC50 of the same molecule?
**A.** 5.04

**Q.** What does the source list for `CSC1=C(C#N)C(=O)N(c2ccc(C)cc2)C(=S)C1C#N` (stereo not given)?
**A.** pEC50: < 3.70; pIC50: 3.76

**Q.** `CC(=O)NN1CCN(C)CC1` was tested. Which pEC50 did it give?
**A.** < 3.70

**Q.** What about the pIC50 of the same molecule?
**A.** < 3.70

**Q.** How did the pEC50 turn out when `COc1cc(C2c3c(oc4ccccc4c3=O)Oc3oc4ccccc4c(=O)c32)cc(OC)c1O` was run?
**A.** < 5.24

**Q.** And the pIC50?
**A.** < 5.24

**Q.** How did the pEC50 turn out when `Cc1ccc(Nc2nc3c(s2)C(=O)c2ccccc2C3=O)cc1` was run?
**A.** < 4.79

**Q.** What about the pIC50 of the same molecule?
**A.** 5.21
